Experimental data as given in the supplement of paper PMC6045584.
± gives the standard deviation of the averaged measurements.

Experiments:
[1] = compound: Cc1ccc(NC(=O)c2ccc(CN3CCN(C)CC3)cc2)cc1Nc1nccc(-c2cccnc2)n1 [IMATINIB]; assay: surviving fraction relative to DMSO-only wells; higher = less growth inhibition; settings: exposure time: 5 days
Outline: (§1)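 Surviving fraction was calculated by normalising CellTiter-Glo luminescence to the median of DMSO-only wells. Tumour cell lines in log phase were seeded in 384-well plates at 250–500 cells per well, and 24 hours later were exposed continuously for five days to inhibitors at 0.5, 1, 5, 10, 50, 100, 500 and 1000 nM.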

[2] = compound: COc1cc2nccc(Oc3ccc(NC(=O)NC4CC4)c(Cl)c3)c2cc1C(N)=O [LENVATINIB]; assay: as above; settings: exposure time: 5 days
Outline: as §1

Test System | surviving fraction ([1]; 0.5 nM) | surviving fraction ([1]; 1 nM) | surviving fraction ([1]; 5 nM) | surviving fraction ([1]; 10 nM) | surviving fraction ([1]; 50 nM) | surviving fraction ([1]; 100 nM) | surviving fraction ([1]; 500 nM) | surviving fraction ([1]; 1000 nM) | surviving fraction ([2]; 0.5 nM) | surviving fraction ([2]; 1 nM) | surviving fraction ([2]; 5 nM) | surviving fraction ([2]; 10 nM) | surviving fraction ([2]; 50 nM) | surviving fraction ([2]; 100 nM) | surviving fraction ([2]; 500 nM) | surviving fraction ([2]; 1000 nM)
MFM223 BREAST | 1.27 ± 0.17 | 1.24 ± 0.041 | 1.13 ± 0.057 | 1.19 ± 0.14 | 1.19 ± 0.063 | 1.17 ± 0.1 | 1.18 ± 0.055 | 1.15 ± 0.052 | 1.16 ± 0.069 | 1.08 ± 0.12 | 1.09 ± 0.077 | 1.12 ± 0.024 | 1.06 ± 0.13 | 0.813 ± 0.053 | 0.336 ± 0.02 | 0.29 ± 0.014
MG63 BONE | 1.08 ± 0.028 | 1.05 ± 0.029 | 1.1 ± 0.03 | 1.09 ± 0.035 | 1.09 ± 0.053 | 1.08 ± 0.034 | – | – | 1.02 ± 0.075 | 1.03 ± 0.06 | 1.08 ± 0.065 | 0.999 ± 0.032 | 0.965 ± 0.061 | 0.865 ± 0.065 | 0.666 ± 0.059 | 0.584 ± 0.029
MHM BONE | 1.07 ± 0.032 | 1.03 ± 0.059 | 1.09 ± 0.043 | 1.09 ± 0.045 | – | – | 1.08 ± 0.029 | – | 1.033 ± 0.0097 | 1.01 ± 0.024 | 1.025 ± 0.0038 | 1.074 ± 0.0044 | 1.05 ± 0.033 | 1.03 ± 0.037 | 0.981 ± 0.019 | 0.937 ± 0.05
NCIH441 LUNG | 1.175 ± 0.0068 | 1.14 ± 0.076 | – | 1.14 ± 0.053 | 1.03 ± 0.12 | 1.06 ± 0.082 | – | 1.16 ± 0.15 | 1.02 ± 0.12 | 1.11 ± 0.1 | 1.07 ± 0.11 | 1 ± 0.019 | 0.994 ± 0.083 | 1.09 ± 0.041 | 1.09 ± 0.075 | 1.01 ± 0.04
NOS1 BONE | 1.18 ± 0.11 | 1.12 ± 0.041 | 1.2 ± 0.085 | 1.13 ± 0.11 | – | 1.06 ± 0.15 | 0.883 ± 0.14 | 0.898 ± 0.039 | 1.09 ± 0.012 | 1.01 ± 0.079 | 1.24 ± 0.34 | 0.922 ± 0.074 | 0.826 ± 0.034 | 0.703 ± 0.021 | 0.624 ± 0.087 | 0.529 ± 0.011
NY BONE | 1.08 ± 0.021 | 1.08 ± 0.022 | 1.12 ± 0.051 | 1.1 ± 0.013 | 1.107 ± 0.0076 | 1.11 ± 0.025 | 1.04 ± 0.043 | 1.03 ± 0.019 | 1.01 ± 0.073 | 1.04 ± 0.048 | 1.05 ± 0.048 | 1.02 ± 0.065 | 1.04 ± 0.045 | 1.05 ± 0.018 | 0.869 ± 0.023 | 0.674 ± 0.007
OS25HAL BONE | 1.08 ± 0.041 | 1.04 ± 0.035 | 1.03 ± 0.021 | 1.06 ± 0.027 | 1.08 ± 0.013 | 1.1 ± 0.017 | – | – | 1.03 ± 0.026 | 1.026 ± 0.0067 | 1.01 ± 0.016 | 1.01 ± 0.05 | 0.98 ± 0.027 | 0.938 ± 0.025 | 0.895 ± 0.016 | 0.88 ± 0.021
OSHN BONE | 1.13 ± 0.024 | 1.126 ± 0.0095 | 1.1 ± 0.033 | 1.12 ± 0.012 | 1.16 ± 0.013 | 1.14 ± 0.017 | – | 1.1 ± 0.051 | 1.11 ± 0.034 | 1.11 ± 0.044 | 1.11 ± 0.033 | 1.11 ± 0.052 | 1.1 ± 0.02 | 1.1 ± 0.035 | 1.1 ± 0.027 | 1.07 ± 0.011
PCI30 HEADNECK | – | 0.943 ± 0.017 | – | 1.08 ± 0.11 | 1.13 ± 0.042 | 1.13 ± 0.024 | 1.06 ± 0.067 | 0.981 ± 0.038 | 0.998 ± 0.031 | 1.08 ± 0.06 | 1.06 ± 0.082 | 1.07 ± 0.057 | 1.14 ± 0.084 | 1.11 ± 0.08 | 1.11 ± 0.073 | 1.17 ± 0.06
RDES SOFT TISSUE | 1.37 ± 0.084 | 1.45 ± 0.048 | 1.21 ± 0.1 | 1.22 ± 0.019 | 1.12 ± 0.1 | 1.21 ± 0.1 | 1.24 ± 0.13 | 1.18 ± 0.082 | 1.33 ± 0.018 | 1.38 ± 0.032 | 1.15 ± 0.067 | 1.23 ± 0.083 | 1.28 ± 0.18 | 1.09 ± 0.14 | 1.09 ± 0.18 | 0.964 ± 0.25
S68 BREAST | 0.783 ± 0.22 | 0.996 ± 0.18 | 1.13 ± 0.17 | – | 1.25 ± 0.47 | 1.28 ± 0.29 | 1.11 ± 0.28 | 0.868 ± 0.081 | 0.924 ± 0.35 | 0.961 ± 0.079 | 0.971 ± 0.29 | 1.18 ± 0.2 | 1.09 ± 0.091 | 1.1 ± 0.26 | 0.858 ± 0.34 | 1.16 ± 0.22
SAOS2 BONE | 1.14 ± 0.031 | 1.14 ± 0.056 | – | 1.22 ± 0.063 | 1.22 ± 0.079 | 1.2 ± 0.075 | 1.16 ± 0.029 | 1.17 ± 0.097 | 1.1 ± 0.024 | 1.07 ± 0.0063 | 1.17 ± 0.029 | 1.16 ± 0.047 | 1.12 ± 0.046 | 1.15 ± 0.075 | 1.062 ± 0.0029 | 1.011 ± 0.0035
SCC003 HEADNECK | 1.1 ± 0.07 | 1.1 ± 0.037 | 1.15 ± 0.036 | – | 1.09 ± 0.033 | 1.18 ± 0.045 | 1.13 ± 0.062 | 1.12 ± 0.075 | 1.18 ± 0.074 | 1.1 ± 0.13 | 1.16 ± 0.12 | 1.1 ± 0.032 | 1.13 ± 0.1 | 1.18 ± 0.064 | 1.13 ± 0.051 | 1.1 ± 0.098
SCC36 HEADNECK | 1.03 ± 0.11 | 1.04 ± 0.18 | 1.09 ± 0.12 | – | 1.11 ± 0.024 | – | 0.886 ± 0.066 | – | 1.06 ± 0.041 | 1.12 ± 0.063 | 1.12 ± 0.18 | 1.21 ± 0.064 | 1.18 ± 0.044 | 1.08 ± 0.036 | 1.01 ± 0.044 | 1.05 ± 0.025
SCC47 HEADNECK | 1.12 ± 0.017 | 1.2 ± 0.065 | 1.18 ± 0.072 | 1.19 ± 0.013 | 1.19 ± 0.025 | 1.25 ± 0.1 | 1.22 ± 0.11 | 1.21 ± 0.028 | 1.11 ± 0.068 | 1.02 ± 0.012 | 1.14 ± 0.021 | 1.14 ± 0.1 | 1.06 ± 0.024 | 1.11 ± 0.15 | 1.12 ± 0.081 | 1.08 ± 0.069
SCC90 HEADNECK | – | – | 1.07 ± 0.011 | 1.01 ± 0.073 | 1.17 ± 0.076 | 1.14 ± 0.08 | 1.17 ± 0.067 | 1.26 ± 0.082 | 1.12 ± 0.056 | 1.12 ± 0.071 | 1.15 ± 0.13 | 1.22 ± 0.093 | 1.18 ± 0.098 | 1.17 ± 0.048 | 1.21 ± 0.085 | 1.3 ± 0.074
SG27 HEADNECK | – | – | 1.02 ± 0.16 | 1.13 ± 0.088 | 1.01 ± 0.079 | 1.17 ± 0.21 | 1.09 ± 0.18 | 1.14 ± 0.068 | 1.15 ± 0.18 | 1.11 ± 0.028 | 1.12 ± 0.093 | 1.1 ± 0.052 | 1.04 ± 0.21 | 0.985 ± 0.13 | 0.928 ± 0.025 | 0.957 ± 0.055
SG28 HEADNECK | 1.25 ± 0.093 | 1.11 ± 0.12 | – | – | – | – | 1.18 ± 0.11 | 1.14 ± 0.096 | 1.01 ± 0.091 | 1.06 ± 0.058 | 1.04 ± 0.011 | 1.08 ± 0.072 | 1.09 ± 0.097 | 0.966 ± 0.069 | 1.1 ± 0.069 | 1.08 ± 0.097
